Measured values reported in US9260710B2, “Photocleavable linker” (City of Hope, priority 2012, dated 2016).

System: TcTex1 and FKBP-IC peptide (TcTex1 trap)
Experiment: Native PAGE and SEC of TcTex1 / TcTex-trap complex formation with AP20187
Assay type: biochemical
From the text: To generate a TcTex1 trap, residues 107-125 of rat dynein IC2C, which specifically interact with TcTex1, were fused to the C-terminus of FKBP (FKBP-IC; FIG. 10D). […] However, addition of AP20187 to the admixture of FKBP-IC (L112A) peptide and TcTex1 produced a shift, but required a 16-fold higher concentration of AP20187 than the LC8/LC8-trap interaction (FIG. 10E, round 2). Based on this observation, we hypothesized that the sequence immediately preceding the TcTex1-binding region may interfere with the interaction, either through conformational restriction due to P109 or electrostatic repulsion due to K111. Therefore, we mutated the sequence PIK to GGS, to introduce flexible, hydrophilic residues (residues 109-111) (FIG. 10D).

[1] = modified FKBP-IC trap, PIK to GGS (round 3)

**Q.** With CCC(C(=O)N1CCCCC1C(=O)OC(CCc1ccc(OC)c(OC)c1)c1cccc(OCC(=O)NCC(CNC(=O)COc2cccc(C(CCc3ccc(OC)c(OC)c3)OC(=O)C3CCCCN3C(=O)C(CC)c3cc(OC)c(OC)c(OC)c3)c2)CN(C)C)c1)c1cc(OC)c(OC)c(OC)c1 (stereo not drawn) [AP, AP20187] as the compound, how does the “fold higher concentration of AP20187 required for shift than the LC8/LC8-trap interaction” value (FKBP-IC (L112A) peptide and TcTex1 (round 2)) read?
**A.** 16 fold

**Q.** What about the “concentration of AP20187 to fully sequester TcTex1 relative to that required for the LC8-trap” value [1] of the same compound?
**A.** approximately twice

**Q.** And the “fold lower concentration of AP20187 to fully sequester TcTex1 than the FKBP-IC (L112A) peptide” value [1]?
**A.** ~8 fold
